Reference: the NIST ThermoML archive (doi:10.1016/j.fluid.2008.10.008)
Several values for one entry are separate records, joined by “and”; a condition that tells them apart may be missing. Equal entries are not always repeated. ± gives the expanded uncertainty stated by the source.

Assay: activity coefficient (dimensionless); of the first substance listed, at infinite dilution; xn = mol fraction of the nth substance listed
Settings: 101 kPa, Liquid, Chromatography, x1 = 0

Row | Structure (SMILES) | activity coefficient (328.15 K) | activity coefficient (333.15 K) | activity coefficient (338.15 K) | activity coefficient (343.15 K)
1 | C=CCCCCC [1-heptene] + CCCC[n+]1ccc(C)cc1.Cc1ccc(S(=O)(=O)[O-])cc1 | 28.7 and 29.2 | 29.5 and 28.2 | 27.2 and 27.9 | 28 and 27.5
2 | C#CCCCCC [1-heptyne] + CCCC[n+]1ccc(C)cc1.Cc1ccc(S(=O)(=O)[O-])cc1 | 5.76 and 5.88 | 6.03 and 5.9 | 6.01 and 5.98 | 6.14 and 6
3 | C#CCCCC [1-hexyne] + CCCC[n+]1ccc(C)cc1.Cc1ccc(S(=O)(=O)[O-])cc1 | 4.25 and 4.19 | 4.43 and 4.26 | 4.37 and 4.61 | 4.8 and 4.36
4 | C#CCCCCCC [1-octyne] + CCCC[n+]1ccc(C)cc1.Cc1ccc(S(=O)(=O)[O-])cc1 | 8.01 and 8.11 | 8.45 and 8.13 | 8.27 and 8.18 | 8.56 and 8.3
5 | C=CCCC [1-pentene] + CCCC[n+]1ccc(C)cc1.Cc1ccc(S(=O)(=O)[O-])cc1 | 16.8 and 15.3 | 16.1 and 14.8 | 15.3 and 15.5 | 15.7 and 14.2
6 | C#CCCC [1-pentyne] + CCCC[n+]1ccc(C)cc1.Cc1ccc(S(=O)(=O)[O-])cc1 | 3.05 and 3.09 | 3.37 and 3.06 | 3.36 and 3.2 | 3.38 and 3.41
7 | c1ccccc1 [benzene] + CCCC[n+]1ccc(C)cc1.Cc1ccc(S(=O)(=O)[O-])cc1 | 4.01 ± 0.18 | 3.92 and 4 | 3.97 and 3.95 | 3.94 and 3.97
8 | C1CCCCCC1 [cycloheptane] + CCCC[n+]1ccc(C)cc1.Cc1ccc(S(=O)(=O)[O-])cc1 | 21.2 and 23.4 | 20.8 ± 1 | 20 ± 0.9 | 19.8 and 19.9
9 | C1CCCCC1 [cyclohexane] + CCCC[n+]1ccc(C)cc1.Cc1ccc(S(=O)(=O)[O-])cc1 | 18.6 and 20.6 | 18 and 18.1 | 17.5 ± 0.8 | 16.9 and 17
10 | C1CCCCCCC1 [cyclooctane] + CCCC[n+]1ccc(C)cc1.Cc1ccc(S(=O)(=O)[O-])cc1 | 26.2 and 28.4 | 25.2 and 25 | 23.7 and 24.6 | 23.6 and 24.5
11 | C1CCCC1 [cyclopentane] + CCCC[n+]1ccc(C)cc1.Cc1ccc(S(=O)(=O)[O-])cc1 | 13.6 and 12.5 | 12.4 and 12.8 | 11.7 and 12 | 11.9 and 11.7
12 | CCO [ethanol] + CCCC[n+]1ccc(C)cc1.Cc1ccc(S(=O)(=O)[O-])cc1 | 0.905 and 0.893 | 0.895 and 0.881 | 0.88 and 0.87 | 0.871 and 0.863
13 | CCCCCCC [heptane] + CCCC[n+]1ccc(C)cc1.Cc1ccc(S(=O)(=O)[O-])cc1 | 53 and 55 | 51.8 and 51 | 50.6 and 50.4 | 49.3 and 49.5
14 | C=CCCCC [hex-1-ene] + CCCC[n+]1ccc(C)cc1.Cc1ccc(S(=O)(=O)[O-])cc1 | 21.2 and 21.1 | 20.7 and 20.1 | 20.3 and 19.5 | 20 and 20.1
15 | CCCCCC [hexane] + CCCC[n+]1ccc(C)cc1.Cc1ccc(S(=O)(=O)[O-])cc1 | 37.3 and 38.9 | 37.2 ± 1.7 | 36 ± 1.7 | 36.9 and 37.1
16 | CO [methanol] + CCCC[n+]1ccc(C)cc1.Cc1ccc(S(=O)(=O)[O-])cc1 | 0.555 and 0.542 | 0.545 and 0.542 | 0.541 and 0.536 | 0.548 and 0.527
17 | C=CCCCCCC [oct-1-ene] + CCCC[n+]1ccc(C)cc1.Cc1ccc(S(=O)(=O)[O-])cc1 | 39.7 and 40.6 | 39.7 and 39.2 | 38.7 and 38.9 | 37.8 and 38
18 | CCCCCCCC [octane] + CCCC[n+]1ccc(C)cc1.Cc1ccc(S(=O)(=O)[O-])cc1 | 71.6 and 75.8 | 71.3 and 70.6 | 67.8 and 68.4 | 68.7 and 68.9
19 | CCCCC [pentane] + CCCC[n+]1ccc(C)cc1.Cc1ccc(S(=O)(=O)[O-])cc1 | 27.6 and 28.7 | 27.5 and 27.8 | 27.7 and 27.8 | 27.3 and 27.4
